Legend:
[1] = Pharmacokinetic analysis in ICR mice; type: in vivo; conditions: mouse, 50 mg/kg P.O.
Method: Male ICR mice (weighing 30-40 g, Charles River Laboratories) were used for the experiment with n=3 mice for each experimental group (27 mice total for the study). […] Blood and liver tissue were collected at the following time points after administration: 15, 30, 60, 90 minutes, 3, 6, 12 and 24 hours. A control group of animals (TO) was also sampled. Animals were euthanized with C02 and the blood collected from the heart using cardiac puncture, transferred to an EDTA tube, and then centrifuged at 5400 rpm for 5 minutes at 4° C. The resultant plasma was frozen using dry ice and then stored at −80° C. until ready for assay. Liver tissue was removed from each animal, 0.5 g was collected in an eppendorff, frozen and submitted for pharmacokinetic measurement. […] Raw data was analyzed using WinNonLin for PK parameters (Cmax, Tmax, elimination t^1/2, MRT (mean residence time), AUC (area under the curve)−(0-last and % extrapolated).

[2] = system: rat model of cortisone-induced insulin resistance; test: Cortisone induced insulin resistance in rats; type: in vivo; conditions: 50 mg/kg po with cortisone 30 mg/kg sc
Method: Animals were dosed with cortisone (30 mg/kg sc qd) in combination with test compounds for 6 days and then terminated 27 hours after the final dose of cortisone. A reference standard (Mifepristone) was also included. Cortisone 21-acetate (Sigma C-3130) was supplied by RenaSci and administered using a dose volume of 5 ml/kg via the subcutaneous route as a fine suspension in 1% methylcellulose. […] Mifepristone (Sigma M8046) was provided by RenaSci.
Glucose and insulin determinations were performed on plasma samples obtained from a tail vein bleed taken after a 12 h fast, approximately 27 h after the last cortisone dose. Animals were then terminated and a terminal (cardiac) blood sample taken from which plasma was prepared.
Thirty four male Sprague Dawley rats (weight range 200-250 g) were ordered from Charles River, Margate, Kent, UK. […] Subsequently, animals underwent a 3 day baseline period during which they were dosed once daily with vehicle at t=0 h (07:00). […] Body weight was recorded immediately before dosing began at 07:00 (t=0 h).
On Day 6 of dosing rats were fasted for 12 h beginning at 22:30 (timed to coincide with the Day 7 termination). […] At 10:30 on Day 7, 27 h after the final dose of cortisone, a blood sample (300 μl) was taken from the lateral tail vein into tubes containing EDTA (Sarstedt 16.444). The blood was centrifuged and resultant plasma aliquot stored at −75° C. The animals were euthanized by CO2 asphyxiation followed by cervical dislocation. Terminal blood (approximately 10 ml) was collected by cardiac puncture into tubes containing EDTA (Sarstedt 5 ml 32.332) and then centrifuged and plasma stored at −75° C. The tail vein plasma was analyzed for glucose (n=2) using a commercial clinical reagent (Thermoelectron Infinity glucose reagent (TR15421) and for insulin (n=1) using the Mercodia ultrasensitive rat insulin rat ELISA (10-1251-10).
Plasma glucose and insulin were analyzed by robust regression or general linear model with treatment as a factor and bleeding order and baseline body weight as covariates. A log transformation was used if appropriate. Appropriate multiple comparison tests (two-tailed) were used to determine significant differences from the vehicle group and from the Cortisone group. P<0.05 was considered to be statistically significant.

[3] = system: Dbp gene expression in whole blood; test: Dbp mRNA in whole blood of db/db mice; type: in vivo, mouse; conditions: 100 mg/kg PO once daily for three days at ZT0, sampled ZT7.5
Method: For whole blood RNA studies, male db/db mice (9 weeks of age, The Jackson Laboratory, Bar Harbor, Me.) were used for the experiment with n=8 mice for each experimental group. […] On the final day at ZT7.5 (2:30 pm), animals were euthanized using CO2 asphyxiation, and the blood collected from the heart via cardiac puncture. The blood was placed in RNALater solution to 1.5 ml total volume. Total RNA was prepared using an Ambion Mouse RiboPure Blood RNA Isolation Kit AM1951 as follows. Samples were centrifuged for 3 minutes, discarding the supernatant. Two ml of lysis solution was added and vortexed, transferred to a 15 ml tube followed by the addition of […]. Lysis buffer was added to a total volume of 3.8 ml and vortexed. The sample mixture was extracted with 1.5 ml Acid Phenol: Chloroform and the aqueous phase was recovered. After adding 0.5 volumes of 100% ethanol and vortexing, the samples were passed through a filter column provided in the kit and washed with 750 microliters of wash buffer 1. The filter was washed with 2 passes of 750 microliters wash buffer 2/3 and dried. […]
For PCR analysis, the kit utilized was TaqMan® Fast Universal Master Mix (2×), No AmpErase® UNG. […] At least one housekeeping mRNA Expression Assay (e.g. GAPDH; Mm03302249_g1 or Hs02758991_g1) was included in each set of RNA samples to be assessed. […]

O=C1NCCN1CC(O)Cn1c2ccc(F)cc2c2cc(F)ccc21 (centres unmarked) [Compound 72, 1-(3-(3,6-difluoro-9H-carbazol-9-yl)-2-hydroxypropyl)imidazolidin-2-one]
% AUC extrapolated ([1]; liver): 0.85%
Tmax (hr) ([1]; liver): 0.25 − hr
Tmax (hr) ([1]; plasma): 0.25 − hr
fasted plasma insulin [2]: 5.24 ± 1.11 ng/mL
Dbp gene expression in whole blood [3]: statistically significant suppression
